{"source": "patent US12103951B2", "about": "“Use of CGRP receptor antagonists in neuroprotection and neurological disorders” (priority 2016, dated 2024)", "type_in_all_cases": "in vivo, Wistar rats", "key": {"[1]": {"system": "retinal ganglion cell (RGC)", "assay": "Rat laser glaucoma model: number of RGCs (Brn3a positive cells) in retinal whole mounts", "experimental": "In this study, Wistar rats (n=12) were used for the experiments. The neuroprotective properties of compounds were investigated in a rat laser model of glaucoma. Rats were divided into two groups of six rats each. One group served as a placebo control receiving vehicle (NaCl) injections, and the other was treated with a peptide CGRP receptor antagonist (SEQ ID NO: 1). For all 12 rats, the contralateral, untreated eye served as a naïve undiseased control. The vehicle control and test compound (20 mg/kg) were administered systemically (IP) daily for the whole follow-up period of two weeks. The animals were sacrificed using transcardial perfusion. […] The number of Brn3a positive profiles was manually counted from retinal images taken from central and peripheral parts of retina. […]\n1. Quantification of Brn3a and GFAP-positive cells from retinal whole mounts manually and using stereology. […]\nRetinal whole mounts were immuno-stained against RGC (Brn3a) and astrocytic (GFAP) antibodies and the number of cells was quantified either manually (Brn3a) or as previously described (Kalesnykas et al., 2008).\nThe retinas were immuno-stained against RGC specific antibody Brn3a, retinas were imaged and Brn3a positive profiles were counted manually using Image J software (NIH, Bethesda, Maryland, USA). […]"}, "optic nerve axons": {"system": "optic nerve axons", "assay": "Rat laser glaucoma model: total number of optic nerve axons (stereology)", "conditions": "IP daily for two weeks; for total number of optic nerve axons, lasered vs contralateral control eyes: paired sample t-test, P>0.05", "experimental": "(§1) In this study, Wistar rats (n=12) were used for the experiments. The neuroprotective properties of compounds were investigated in a rat laser model of glaucoma. Rats were divided into two groups of six rats each. One group served as a placebo control receiving vehicle (NaCl) injections, and the other was treated with a peptide CGRP receptor antagonist (SEQ ID NO: 1). For all 12 rats, the contralateral, untreated eye served as a naïve undiseased control. The vehicle control and test compound (20 mg/kg) were administered systemically (IP) daily for the whole follow-up period of two weeks. The animals were sacrificed using transcardial perfusion. The retinal whole-mounts were then immuno-stained against retinal ganglion cell (RGC) marker Brn3a and astrocytic marker GFAP (glial fibrillary acidic protein). The number of Brn3a positive profiles was manually counted from retinal images taken from central and peripheral parts of retina. The total number of GFAP-immunoreactive cells (retinal astrocytes) was estimated using stereology. The total number of RGC axons in the optic nerve was estimated using stereology.\nThe rat glaucoma model was induced unilaterally by laser photocoagulation of episcleral veins as previously described (Kalesnykas et al., 2007). Anesthesia was performed using sodium pentobarbital (30 mg/kg). […]\n2. Quantification of optic nerve axons using stereology. […]\nAfter the optic nerves were post-fixed in 4% PFA (in 0.1M phosphate buffer, pH 7.4) solution, they were placed in 1% osmium, dehydrated in ascending alcohol concentration and placed in 1% uranyl acetate in 100% ethanol for 1 hour (Cone et al., 2012). […] Briefly, axons were counted manually using the Stereo Investigator software (MicroBrightField, VT, USA). […]\nQuantitative data was graphed, analyzed and presented as mean±standard deviation (SD) or standard error of mean (SEM). Parametric data was analyzed using paired-samples T-test (the contralateral eye of the same animal serves as control). Non-parametric data was analyzed using Mann-Whitney U test (comparison of 2 groups) or Wilcoxon paired-samples T-test. […]"}, "retinal astrocytes": {"system": "retinal astrocytes", "assay": "Rat laser glaucoma model: total number of GFAP-immunoreactive cells (retinal astrocytes)", "conditions": "between the groups (CGRP antagonist vs vehicle)", "experimental": "as §1, with “The total number of RGC axons in the optic nerve was estimated using stereology.” left out\n1. Quantification of Brn3a and GFAP-positive cells from retinal whole mounts manually and using stereology.\nRetinal whole mounts were immuno-stained against RGC (Brn3a) and astrocytic (GFAP) antibodies and the number of cells was quantified either manually (Brn3a) or as previously described (Kalesnykas et al., 2008). […]"}}, "note": "Entries after “also recorded” stand apart in the source; their conditions may differ.", "data": [{"substance": "NH2-Ala-Cys-Asp-Thr-Ala-Ala-Cys-Val-Leu-Gly-Arg-Leu-Ser-Gln-Glu-Leu-His-Arg-Leu-Gln-Thr-Tyr-Pro-Arg-Thr-Asn-Val-Gly-Ser-Lys-Ala-Phe-NH2 (H-ACDTAACVLGRLSQELHRLQTYPRTNVGSKAF-NH2; ends and bridges not checked) [SEQ ID NO: 1, peptide CGRP receptor antagonist]", "values": [{"measurement": "number of Brn3a positive cells, increase in lasered eyes vs contralateral control eyes", "setting": "[1]; IP daily for two weeks, increase, P=0.43", "result": 3.0, "unit": "%"}, {"measurement": "neuroprotection at cellular and optic nerve axon levels", "setting": "[1]; rat glaucoma model, systemic administration", "result": "showed neuroprotection"}, {"measurement": "total number of optic nerve axons, increase vs optic nerves from contralateral control eyes", "setting": "optic nerve axons; increase", "result": 1.7, "unit": "%"}, {"measurement": "total number of optic nerve axons, lasered vs contralateral control eyes", "setting": "optic nerve axons", "result": "did not differ significantly; also recorded: smallest decrease in the total number of axons"}, {"measurement": "total number of optic nerve axons, lasered vs contralateral control eyes", "setting": "optic nerve axons; listed as CGRP antagonist", "result": "slight increase"}, {"measurement": "total number of retinal astrocytes", "setting": "retinal astrocytes", "result": "no differences"}]}]}
